Nine molecules from patent US20260070922A1, “PYRAZOLE AND IMIDAZOLE DERIVATIVES AS DUAL OREXIN AND KAPPA-OPIOID RECEPTORS MODULATORS COMPOSITION, METHODS FOR TREATING NEUROLOGICAL AND PSYCHIATRIC DISORDERS” (HAGER BIOSCIENCES, LLC, priority 2022, published 2026) can be followed below.

Molecules are shown by their SMILES.

Assay [1] addresses T1, Orexin type 1 (OX1R) receptor (Homo sapiens, UniProt O43613).
T1 construct: expressed in transfected cells; host or cells: CHO cells (G418 selection)
T1 sequence (O43613 1-425): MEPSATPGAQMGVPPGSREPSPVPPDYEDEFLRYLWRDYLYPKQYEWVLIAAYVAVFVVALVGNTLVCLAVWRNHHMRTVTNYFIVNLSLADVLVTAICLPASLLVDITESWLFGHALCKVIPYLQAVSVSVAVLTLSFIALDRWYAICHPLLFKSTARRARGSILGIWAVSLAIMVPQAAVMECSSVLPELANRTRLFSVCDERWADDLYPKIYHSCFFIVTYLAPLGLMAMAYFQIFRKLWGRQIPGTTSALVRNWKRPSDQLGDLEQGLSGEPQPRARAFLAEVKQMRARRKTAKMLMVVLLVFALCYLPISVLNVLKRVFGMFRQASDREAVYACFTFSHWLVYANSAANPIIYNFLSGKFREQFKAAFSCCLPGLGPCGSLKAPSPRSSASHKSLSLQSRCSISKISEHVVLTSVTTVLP
The assay is described as follows: In vitro orexin antagonism assay: intracellular calcium measurement (FLIPR), orexin-A 3 nM as agonist. It counts as cell-based. Particulars: for IC50: first value of IC50/Kb cell; for inhibition at 1 µM: read-out: OX1R, % Inh. @ 1 uM; for Kb: second value of IC50/Kb cell. The essentials:
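CHO cells expressing the human orexin receptor were loaded with 3 μM fluo-4 AM plus 5 mM probenecid, then exposed to antagonist for 120 min before 3 nM orexin-A (final) was added on a FLIPR.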
Background: Calcium assays in cells follow changes in intracellular calcium, usually with a dye or a luminescent sensor.

The target in assay [2] is T2, human orexin-2 receptor (OX2R) (Homo sapiens, UniProt O43614).
T2 construct: expressed in transfected cells; host or cells: CHO cells (G418 selection)
T2 sequence (O43614 1-444): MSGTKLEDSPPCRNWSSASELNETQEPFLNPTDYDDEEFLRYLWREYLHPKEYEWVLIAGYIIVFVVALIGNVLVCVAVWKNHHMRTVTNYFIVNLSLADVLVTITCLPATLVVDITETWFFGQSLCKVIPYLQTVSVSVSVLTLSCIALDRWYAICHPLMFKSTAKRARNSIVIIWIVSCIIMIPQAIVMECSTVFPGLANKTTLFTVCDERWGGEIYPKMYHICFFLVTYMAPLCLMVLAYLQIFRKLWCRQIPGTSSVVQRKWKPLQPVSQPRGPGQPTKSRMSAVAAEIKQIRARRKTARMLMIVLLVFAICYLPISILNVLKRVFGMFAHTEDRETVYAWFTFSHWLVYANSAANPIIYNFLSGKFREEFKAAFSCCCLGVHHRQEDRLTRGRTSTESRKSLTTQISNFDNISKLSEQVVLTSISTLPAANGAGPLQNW
The assay is described as above. The format is cell-based. Particulars: for IC50: first value of IC50/Kb cell; for inhibition at 1 µM: read-out: OX2R, % Inh. @ 1 uM; for Kb: second value of IC50/Kb cell. A digest of the protocol:
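Fluorescence peak on 3 nM orexin-A challenge, read by FLIPR and compared with vehicle, yields IC50 (geometric mean when repeated; may be normalized to an on-plate reference). Antagonists were added 120 min beforehand to fluo-4-loaded recombinant CHO cells expressing human OX1R or OX2R.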

In assay [3] the target is T3, human k-opioid receptor (kOR) (Homo sapiens, UniProt P41145).
T3 construct: expressed in transfected cells; host or cells: RBL cells (membrane homogenates)
In words: Human k-opioid (KOP) receptor (agonist radioligand [3H]U-69593) binding assay, transfected RBL cell membranes. Particulars: for IC50: first value of IC50/Ki cell; for inhibition at 1 µM: read-out: KOR % Inh. @ 1 uM. A digest of the protocol: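 Membranes from transfected RBL cells (~80 μg protein) incubated 60 min at 22° C with 0.5 nM [3H]U-69593 in 50 mM Tris-HCl pH 7.4, 10 mM MgCl2, 1 mM EDTA. Nonspecific binding defined with 10 μM naloxone; filtration and scintillation counting. Values are percent inhibition of specific radioligand binding.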

In assay [4] the target is T3, human k-opioid receptor (kOR). The description is as above. The conditions noted are these: second value of IC50/Ki cell.

T3 sequence (P41145 whole entry): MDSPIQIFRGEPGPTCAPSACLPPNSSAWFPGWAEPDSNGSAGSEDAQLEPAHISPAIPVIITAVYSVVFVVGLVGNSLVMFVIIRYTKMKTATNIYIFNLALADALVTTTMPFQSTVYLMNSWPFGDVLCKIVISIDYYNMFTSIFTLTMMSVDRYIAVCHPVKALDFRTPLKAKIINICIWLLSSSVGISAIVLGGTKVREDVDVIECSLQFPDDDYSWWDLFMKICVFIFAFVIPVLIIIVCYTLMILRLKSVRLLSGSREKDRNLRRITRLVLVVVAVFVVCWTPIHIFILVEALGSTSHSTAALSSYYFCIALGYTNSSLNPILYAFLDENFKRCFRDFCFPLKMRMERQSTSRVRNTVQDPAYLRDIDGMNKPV

Consider `O=C(c1c(-c2ccccc2)nc2ccc(F)cn12)N1CCC[C@H]1Cn1cc(-c2ccccc2)cn1` [Example 75], for which the IC50 came out at 160 nM in assay [1], 160 nM in assay [2] and 140 nM in assay [3]. Also, the inhibition at 1 µM in assay [1] came out at 93%; in assay [2] it was 76%; in assay [3] it was 86%. Also, the antagonist equilibrium constant (Kb) in assay [1] was 33 nM; in assay [2], 28 nM. The Ki in assay [4] amounted to 77 nM.

Consider `O=C(c1c(-c2ccccc2)nc2cc(C(F)(F)F)ccn12)N1CCC[C@H]1Cn1cc(-c2ccccc2)cn1` [Example 80], for which, in assay [1], the concentration for half-maximal inhibition (IC50) was 190 nM, the inhibition at 1 µM stood at 87% and the Kb stood at 40 nM. In assay [2], the IC50 was 79 nM, the inhibition at 1 µM came out at 78% and the Kb was 14 nM. Besides, in assay [3], the IC50 stood at 46 nM and the inhibition at 1 µM worked out at 95%. Besides, the Ki in assay [4] was 25 nM.

For `O=C(c1c(-c2ccccc2)nc2ccc(F)cn12)N1CCC[C@H]1Cn1ccc(-c2ccc(F)cn2)n1` [Example 92], in assay [1], the IC50 worked out at 250 nM, the inhibition at 1 µM amounted to 75% and the Kb was 52 nM. For the same molecule, in assay [2], the half-maximal inhibitory concentration (IC50) was found to be 930 nM, the inhibition at 1 µM amounted to 61% and the Kb came to 160 nM. In assay [3], the half-maximal inhibitory concentration (IC50) came out at 170 nM and the inhibition at 1 µM was 79%. Also, in assay [4], the inhibition constant (Ki) came out at 94 nM.

Consider `O=C(c1c(-c2ccccc2)nc2cc(C(F)(F)F)ccn12)N1CCC[C@H]1Cn1ccc(-c2ccc(F)cn2)n1` [Example 94], for which, in assay [1], the IC50 was 37 nM, the inhibition at 1 µM is 88% and the antagonist equilibrium constant (Kb) stood at 8 nM. In assay [2], the IC50 turned out to be 36 nM, the inhibition at 1 µM came out at 76% and the antagonist equilibrium constant (Kb) amounted to 6 nM. In assay [3], the 50% inhibitory concentration (IC50) was 210 nM and the inhibition at 1 µM is 74%. In assay [4], this molecule showed an inhibition constant Ki of 120 nM.

Regarding `O=C(c1c(-c2ccccc2F)nn2ccccc12)N1[C@H](Cn2ccc(-c3ccc(F)cc3)n2)C[C@@H]2C[C@@H]21` [Example 95], in assay [1], the 50% inhibitory concentration (IC50) worked out at 95 nM, the inhibition at 1 µM is 91% and the antagonist dissociation constant (Kb) was determined as 20 nM. The inhibition at 1 µM in assay [2] turned out to be 50%. In assay [3], the IC50 came out at 180 nM and the inhibition at 1 µM was 87%. The affinity in assay [4] corresponds to a Ki of 99 nM.

For `O=C(c1c(-c2ccccc2)nc2ccc(F)cn12)N1[C@H](Cn2ccc(-c3ccc(F)cc3)n2)C[C@@H]2C[C@@H]21` [Example 97], the IC50 in assay [1] was determined as 160 nM; in assay [3] it was 80 nM. Besides, the results for the inhibition at 1 µM in assay [1], in assay [2] and in assay [3] were 70%, 37% and 91%, respectively. For the same molecule, the Kb in assay [1] amounted to 33 nM. The inhibitory constant (Ki) in assay [4] stood at 44 nM.

For the molecule `O=C(c1c(-c2ccccc2F)nn2ccccc12)N1[C@H](Cn2ccc(-c3ccc(F)cn3)n2)C[C@@H]2C[C@@H]21` [Example 107], the values for the IC50 in assay [1], in assay [2] and in assay [3] were 83 nM, 520 nM and 910 nM, respectively. The inhibition at 1 µM in assay [1] was determined as 92%; in assay [2] it was 55%; in assay [3], 61%. In addition, the figures for the antagonist dissociation constant (Kb) in assay [1] and in assay [2] were 18 nM and 90 nM, respectively. Besides, in assay [4], the affinity corresponds to a Ki of 500 nM.

On to `O=C(c1nn2ccccc2c1-c1ccccc1)N1CCC[C@H]1Cn1cc(-c2ccc(F)cn2)cn1` [Example 112], for which, in assay [1], the half-maximal inhibitory concentration (IC50) turned out to be 4 nM, the inhibition at 1 µM is 100% and the antagonist equilibrium constant (Kb) turned out to be 0.8 nM. Moreover, in assay [2], the IC50 was 15 nM, the inhibition at 1 µM was found to be 86% and the Kb was 3 nM. In assay [3], the IC50 was determined as 720 nM and the inhibition at 1 µM came out at 70%. For the same molecule, the inhibition constant (Ki) in assay [4] is 390 nM.

`[2H]C1([2H])CC[C@@]([2H])(Cn2ccc(-c3ccc(F)cc3)n2)N1C(=O)c1c(-c2ccccc2)nc2ccc(F)cn12` [Example 177]: in assay [1], the half-inhibitory concentration (IC50) was found to be 20 nM, the inhibition at 1 µM was 95% and the Kb was found to be 4 nM. Also, in assay [2], the IC50 came to 371 nM, the inhibition at 1 µM was determined as 85% and the antagonist equilibrium constant (Kb) was found to be 64 nM. For the same molecule, in assay [3], the IC50 stood at 90 nM and the inhibition at 1 µM came to 91%. In assay [4], this molecule came in with a Ki of 49 nM.

In general, IC50 refers to the concentration needed to halve the response being measured. One may read the Kb as the affinity of an antagonist, worked out from how it opposes an agonist. In general, Ki refers to the dissociation constant of the complex between target and ligand, obtained from inhibition or displacement. A higher Ki goes with a looser hold on the target.
